{"source": "paper PMC8597757", "about": "“Pharmacokinetic and Safety Profile of the Novel HIV Nonnucleoside Reverse Transcriptase Inhibitor MK-8507 in Adults without HIV” (Antimicrobial Agents and Chemotherapy, 2021)", "key": {"[1]": {"assay": "Food effect assessment (100 mg suspension, high-fat meal vs fasted)", "format": "in vivo, human", "description": "(§1) Study 1 was a 4-period, alternating panel (A and B), rising single-dose trial. Participants in each panel were randomized to receive single rising doses of MK-8507 (n = 6 per panel) or placebo (n = 2 per panel) as an oral suspension. All study drugs were administered after an overnight fast, except in period 4. […] There was a minimum 20-day washout interval between doses within each panel and a 10-day interval between each dosing period. […] MK-8507 in plasma was extracted by protein precipitation and analyzed by reversed-phase chromatographic separation coupled with tandem mass spectrometric detection by Merck & Co., Inc. (West Point, PA, USA). The liquid chromatography-tandem mass spectrometric (LC-MS/MS) system consisted of a Waters Acquity ultraperformance liquid chromatography system (Waters Corporation, Milford, MA, USA) employing a turbo ionspray interface in the negative ion mode. The lower limit of quantitation was 1.0 ng/mL (2.03 nM) with a linear calibration range from 1.0 to 1000 ng/mL. The mean intrarun accuracy was 94.8 to 113% (precision, ≤6.2% coefficient of variation [CV]), and the mean interrun accuracy was 94.4 to 103.0% (precision, ≤8.6% CV). […] Statistical analyses were performed using SAS software version 9.3 (SAS Institute Inc., Cary, NC, USA). […] The least-squares geometric mean (GM) and corresponding 95% CIs obtained from the models were exponentiated to provide estimates for the population GMs and CIs on the original scales."}, "[2]": {"assay": "Single-dose plasma pharmacokinetics of MK-8507 (suspension, study 1; tablet, study 2)", "format": "in vivo", "settings": "human; for Cmax: n=6, read-out: Cmax (geometric mean [95% CI]); for AUC(0-t): n=6, read-out: AUC0–168 (geometric mean [95% CI]); for concentration at 168 h: n=6, read-out: C168hr (geometric mean [95% CI])", "description": "as §1"}, "[3]": {"test_system": "common NNRTI resistance-associated variants", "settings": "cited from earlier work"}, "[4]": {"assay": "Dose proportionality assessment of single oral doses 2 to 1,200 mg", "format": "in vivo, human", "text": "The AUC0-168hr and […] group was not statistically significant at the 0.05 level and was therefore omitted from the final model. An overall slope was estimated across all groups."}, "[5]": {"settings": "100 mg suspension, compared with fasted administration"}, "[6]": {"settings": "po, 30 mg, single oral dose 30 mg, suspension, fasted"}, "[7]": {"settings": "po, 400 mg, single oral dose 400 mg, suspension, fasted"}}, "note": "“Also recorded” adds a separate entry of the source.", "data": [{"smiles": "N#Cc1cc(Cl)cc(Oc2c(C(F)(F)F)ncn(Cc3cc(C(F)(F)F)c(=O)[nH]n3)c2=O)c1", "note": "[MK-8507]", "values": [{"measurement": "effect of a high-fat meal on MK-8507 pharmacokinetics", "setting": "[1]; 100 mg suspension", "result": "no clinically meaningful effect; also recorded: no meaningful effect on AUC0–∞ or C168hr"}, {"measurement": "change in C168hr by a high-fat meal", "setting": "[1]; [5]", "result": "no change"}, {"measurement": "decrease of AUC0–∞ by a high-fat meal", "setting": "[1]; [5]", "result": "~9", "unit": "%"}, {"measurement": "decrease of Cmax by a high-fat meal", "setting": "[1]; [5]", "result": 35, "unit": "%"}, {"measurement": "delay of Tmax by a high-fat meal", "setting": "[1]; [5]", "result": "~8", "unit": "h"}, {"measurement": "AUC(0-inf)", "setting": "[1]; human, single oral dose 100 mg (fed), suspension, following a high-fat meal, plasma, n=6, read-out: AUC0-∞ (geometric mean [95% CI])", "result": 159, "unit": "µM·h"}, {"measurement": "AUC(0-t)", "setting": "[1]; human, single oral dose 100 mg (fed), suspension, following a high-fat meal, plasma, n=6, read-out: AUC0–168 (geometric mean [95% CI])", "result": 126, "unit": "µM·h"}, {"measurement": "half-life", "setting": "[1]; human, single oral dose 100 mg (fed), suspension, following a high-fat meal, plasma, n=6, read-out: Apparent terminal t½ (geometric mean [%GVC]) (converted)", "result": 72.6, "unit": "h"}, {"measurement": "concentration at 168 h", "setting": "[1]; human, single oral dose 100 mg (fed), suspension, following a high-fat meal, plasma, n=6, read-out: C168hr (geometric mean [95% CI])", "result": 310, "unit": "nM"}, {"measurement": "Cmax", "setting": "[1]; human, single oral dose 100 mg (fed), suspension, following a high-fat meal, plasma, n=6, read-out: Cmax (geometric mean [95% CI])", "result": 1670, "unit": "nM"}, {"measurement": "Tmax", "setting": "[1]; human, single oral dose 100 mg (fed), suspension, following a high-fat meal, plasma, n=6, read-out: Tmax (median [min, max])", "result": 10, "unit": "h"}, {"measurement": "GMR fed/fasted, C168hr", "setting": "[1]; single oral dose 100 mg suspension, high-fat meal vs overnight fast, n=6", "result": 1.02}, {"measurement": "half-life", "setting": "[2]; oral, overall, discussion, read-out: terminal t½ (converted)", "result": "~70", "unit": "h"}, {"measurement": "half-life", "setting": "[2]; oral, single doses 2 to 1,200 mg, range across doses, read-out: mean terminal half-life (t1/2)", "result": "58 to 84", "unit": "h"}, {"measurement": "half-life", "setting": "[2]; oral, some participants, 336 h of PK sampling, read-out: t1/2 in some participants", "result": "> 100", "unit": "h"}, {"measurement": "Tmax", "setting": "[2]; oral, suspension, fasted, range across doses, read-out: median Tmax", "result": "2 to 4", "unit": "h"}, {"measurement": "Cmax", "setting": "[2]; po, 2 mg, single oral dose 2 mg, suspension, fasted", "result": 50, "unit": "nM"}, {"measurement": "AUC(0-inf)", "setting": "[2]; po, 10 mg, single oral dose 10 mg, suspension, fasted, n=6, read-out: AUC0-∞ (geometric mean [95% CI])", "result": 15.2, "unit": "µM·h"}, {"measurement": "Cmax", "setting": "[2]; po, 10 mg, single oral dose 10 mg, suspension, fasted", "result": 220, "unit": "nM"}, {"measurement": "AUC(0-t)", "setting": "[2]; [6]", "result": 39.7, "unit": "µM·h"}, {"measurement": "concentration at 168 h", "setting": "[2]; [6]", "result": 100, "unit": "nM"}, {"measurement": "Tmax", "setting": "[2]; po, 30 mg, single oral dose 30 mg, suspension, fasted, n=6, read-out: Tmax (median [min, max])", "result": 2, "unit": "h"}, {"measurement": "Tmax", "setting": "[2]; po, 100 mg, single oral dose 100 mg, suspension, fasted, n=6, read-out: Tmax (median [min, max])", "result": 2.04, "unit": "h"}, {"measurement": "AUC(0-t)", "setting": "[2]; po, 200 mg, single oral dose 200 mg, suspension, fasted", "result": 287, "unit": "µM·h"}, {"measurement": "concentration at 168 h", "setting": "[2]; [7]", "result": 1300, "unit": "nM"}, {"measurement": "Cmax", "setting": "[2]; [7]", "result": 11500, "unit": "nM"}, {"measurement": "Tmax", "setting": "[2]; po, oral doses across both studies, suspension or tablet, read-out: time to maximum concentration (Tmax)", "result": "2 to 7", "unit": "h"}, {"measurement": "in vitro activity against common NNRTI resistance-associated variants", "setting": "[3]", "result": "demonstrated in vitro activity"}, {"measurement": "dose proportionality of pharmacokinetics", "setting": "[4]; 2 to 1,200 mg", "result": "increased dose proportionally; also recorded: approximately dose proportional"}, {"measurement": "Estimate of slope, C168hr as a function of dose", "setting": "[4]; single oral doses of 2 to 1,200 mg, ln-ln linear mixed-effect model", "result": 0.9932}]}]}
